“Also recorded” adds a separate entry of the source. No end group written: not given here.
System: calpain
Assay: assay of calpain inhibition (casein substrate, acid-soluble fraction read at 280 nm)
Type: biochemical
Settings: 15 min at 30° C. after adding calcium chloride, absorbance at 280 nm of the supernatant, profiles only in FIGS. 3 and 4
Description: Confirmation of expression can be done by the measurement of the inhibition of calpain, as in the measurement done with casein as the substrate, with extraction from a culture fluid of E. coli, and measurement of the decrease in the acid-soluble fraction by the use of spectroscopy.
The assay of calpain inhibition was done as described below (A. Kitahara et al., J. Biochem., 95, 1759-1766, 1984). First, 10 μl of the sample 2.5 μl of calpain at the concentration of 1 mg/ml, 40 μl of 2% casein in imidazole, and 20 μl of crysteine at the concentration of 6 mg/ml were mixed together, giving a total volume of 180 μl. Next, the mixture was treated for 5 min at 30° C., after which 20 μl of 50 mM calcium chloride was added, and the mixture was incubated for 15 min at 30° C. Then 200 μl of 5% trichloroacetic acid was added to stop the reaction, and the mixture was centrifuged at 12,000 rpm for 10 min. The supernatant was obtained, and its absorbance at 280 nm was measured, from which the inhibitory activity toward calpain was calculated.

Row | Sequence | inhibitory activity toward calpain
1 | DPMSSTYIEELGKREVTIPPKYRELL [polypeptide of 26 amino acids] | can inhibit calpain; also recorded: had calpastatin-like activity
2 | TYIEELGKREVTIPPKYR [polypeptide of 18 amino acids] | can inhibit calpain; also recorded: still has activity; also recorded: inhibited calpain
3 | TYIEELGKREVTIPPKYRELL [polypeptide of 21 amino acids] | can inhibit calpain; also recorded: had calpastatin-like activity
4 | YIEELGKREVTIPPKYR [polypeptide with 17 amino acids, reference compound] | almost undetectable
